These results are taken from patent US7244586B2, “DNA molecules encoding ligand-gated ion channels from Drosophila melanogaster” (Merck & Co., Inc., priority 2000, dated 2007).

The subject of this assay is DmLGIC AC15. The conditions noted are these: AC15 clone expressed in Xenopus oocyte. The method, then:
Full length cDNA clones corresponding to the selected RT-PCR sequences were used as template for synthesis of in vitro transcribed RNA (Ambion Inc.). The capped cRNA transcripts are synthesized using appropriate oligonucleotide primers and the mMESSAGE mMACHINE in vitro RNA transcription kit from Ambion. Xenopus laevis oocytes were prepared and injected using standard methods as described (Arena et al., 1991, Mol. Pharmacol. 40: 368–374; Arena et al, 1992, Mol. Brain Res. 15: 339–348). Adult female Xenopus laevis were anesthetized with 0.17% tricaine methanesulfonate and the ovaries were surgically removed and placed in a dish consisting of (mM): NaCl 82.5, KCl 2, MgCl2 1, CaCl2 1.8, HEPES 5, adjusted to pH 7.5 with NaOH (OR-2). Ovarian lobes were broken open, rinsed several times, and gently shaken in OR-2 containing 0.2% collagenase (Sigma, Type 1A) for 2–5 hours. When approximately 50% of the follicular layers were removed, Stage V and VI oocytes were selected and placed in media consisting of (mM): NaCl 86, KCl 2, MgCl2 1, CaCl2 1.8, HEPES 5, Na pyruvate 2.5, theophylline 0.5, gentamicin 0.1 adjusted to pH 7.5 with NaOH (ND-96) for 24–48 hours before injection. For most experiments, oocytes were injected with 10 ng of cRNA in 50 nl of RNase free water. Control oocytes were injected with 50 nl of water. […]

Take `NCCc1c[nH]cn1` [histamine]: the “response of functional single channel protein to addition of histamine” value is reported as “responds to the addition of histamine”.
